From patent publication US20180000085A1, “USE OF PICOLINAMIDE COMPOUNDS WITH FUNGICIDAL ACTIVITY” (DOW AGROSCIENCES LLC, priority 2014, published 2018)

Experiments:
[1] = tested on: Zymoseptoria tritici; assay: Leaf blotch of wheat (SEPTTR) disease control on wheat seedlings; format: in vivo; design: key to SEPTTR 1DP, HV activity at 100 ppm (% control rating) / SEPTTR 3DC, HV activity at 100 ppm (% control rating) / SEPTTR disease control, 1DP / SEPTTR disease control, 3DC / SEPTTR 1DP disease control rating, HV activity / SEPTTR 3DC disease control rating, HV activity / SEPTTR 3DC, LV activity at 125.1 g/H (% Control rating) / SEPTTR 1DP, LV activity at 125.1 g/H (% Control rating) / SEPTTR 1DP disease control rating, LV activity at 125.1 g/H / SEPTTR 3DC disease control rating, LV activity at 125.1 g/H / SEPTTR 3DC disease control rating, HV activity at 100 ppm / SEPTTR 1DP disease control rating, HV activity at 100 ppm / HV activity at 100 ppm SEPTTR 3DC (disease control rating) / HV activity at 100 ppm SEPTTR 1DP (disease control rating) / LV activity at 125.1 g/H SEPTTR 1DP (disease control rating) / LV activity at 125.1 g/H SEPTTR 3DC (disease control rating): A: > 80; B: ≤ 80; C: Not Tested; D: No Activity Observed in the Reported Assay; settings: wheat leaf blotch; for HV activity at 100 ppm SEPTTR 1DP (disease control rating) / HV activity at 100 ppm SEPTTR 3DC (disease control rating): HV application; for HV activity at 100 ppm SEPTTR 1DP (disease control rating) / LV activity at 125.1 g/H SEPTTR 1DP (disease control rating): 1 Day Protectant; for HV activity at 100 ppm SEPTTR 3DC (disease control rating) / LV activity at 125.1 g/H SEPTTR 3DC (disease control rating): 3 Day Curative; for LV activity at 125.1 g/H SEPTTR 1DP (disease control rating) / LV activity at 125.1 g/H SEPTTR 3DC (disease control rating): low volume application
[2] = tested on: Puccinia triticina; assay: Wheat brown rust (PUCCRT) disease control on wheat seedlings; format: in vivo; design: key to PUCCRT 3DC, HV activity at 100 ppm (% control rating) / PUCCRT disease control, 3DC / PUCCRT 1DP disease control rating, HV activity / PUCCRT 3DC disease control rating, HV activity / PUCCRT 3DC, LV activity at 125.1 g/H (% Control rating) / PUCCRT 1DP, LV activity at 125.1 g/H (% Control rating) / PUCCRT 3DC disease control rating, LV activity at 125.1 g/H / PUCCRT 1DP disease control rating, LV activity at 125.1 g/H / PUCCRT 3DC disease control rating, HV activity at 100 ppm / PUCCRT 1DP disease control rating, HV activity at 100 ppm / HV activity at 100 ppm PUCCRT 3DC (disease control rating) / LV activity at 125.1 g/H PUCCRT 1DP (disease control rating) / LV activity at 125.1 g/H PUCCRT 3DC (disease control rating): A: > 80; B: ≤ 80; C: Not Tested; D: No Activity Observed in the Reported Assay; settings: wheat brown rust; for HV activity at 100 ppm PUCCRT 1DP (disease control rating) / HV activity at 100 ppm PUCCRT 3DC (disease control rating): HV application; for HV activity at 100 ppm PUCCRT 1DP (disease control rating) / LV activity at 125.1 g/H PUCCRT 1DP (disease control rating): 1 Day Protectant; for HV activity at 100 ppm PUCCRT 3DC (disease control rating) / LV activity at 125.1 g/H PUCCRT 3DC (disease control rating): 3 Day Curative; for LV activity at 125.1 g/H PUCCRT 1DP (disease control rating) / LV activity at 125.1 g/H PUCCRT 3DC (disease control rating): low volume application

Compound	HV activity at 100 ppm SEPTTR 1DP (disease control rating) [1]	HV activity at 100 ppm SEPTTR 3DC (disease control rating) [1]	HV activity at 100 ppm PUCCRT 1DP (disease control rating) [2]	HV activity at 100 ppm PUCCRT 3DC (disease control rating) [2]	LV activity at 125.1 g/H SEPTTR 1DP (disease control rating) [1]	LV activity at 125.1 g/H SEPTTR 3DC (disease control rating) [1]	LV activity at 125.1 g/H PUCCRT 1DP (disease control rating) [2]	LV activity at 125.1 g/H PUCCRT 3DC (disease control rating) [2]
COc1ccnc(C(=O)N[C@@H](C)C(=O)O[C@@H](C)[C@@H](CC(C)C)Oc2ccc(C)cc2Cl)c1O [Cmpd 1051]	B (≤ 80)	D	A (> 80)	B (≤ 80)	–	–	–	–
COc1cc(O[C@H](CC(C)C)[C@H](C)OC(=O)[C@H](C)NC(=O)c2nccc(OC)c2O)ccc1Cl [Cmpd 1052]	A (> 80)	A (> 80)	A (> 80)	A (> 80)	–	–	–	–
COc1ccnc(C(=O)N[C@@H](C)C(=O)O[C@@H](C)[C@H](Oc2cccc(Cl)c2)C2CC2)c1OC(C)=O [Cmpd 1053]	–	–	–	–	B (≤ 80)	A (> 80)	A (> 80)	A (> 80)
CCC[C@@H](Oc1ccc(Cl)c(OC)c1)[C@H](C)OC(=O)[C@H](C)NC(=O)c1nccc(OC)c1OC(C)=O [Cmpd 1054]	–	–	–	–	B (≤ 80)	B (≤ 80)	A (> 80)	A (> 80)
COc1ccnc(C(=O)N[C@@H](C)C(=O)O[C@@H](C)[C@H](Oc2cccc(Cl)c2)C(C)(C)C)c1OC(C)=O [Cmpd 1055]	–	–	–	–	B (≤ 80)	A (> 80)	A (> 80)	A (> 80)
CCC[C@@H](Oc1cccc(Cl)c1)[C@H](C)OC(=O)[C@H](C)NC(=O)c1nccc(OC)c1OC(C)=O [Cmpd 1056]	–	–	–	–	A (> 80)	A (> 80)	A (> 80)	A (> 80)
CCC[C@@H](OCC1CC1)[C@H](C)OC(=O)[C@H](C)NC(=O)c1nccc(OC)c1OC(C)=O [Cmpd 1057]	–	–	–	–	B (≤ 80)	B (≤ 80)	B (≤ 80)	A (> 80)
COc1ccnc(C(=O)N[C@@H](C)C(=O)O[C@@H](C)[C@H](Oc2ccc(C)cc2)C2CC2)c1OC(C)=O [Cmpd 1058]	–	–	–	–	B (≤ 80)	B (≤ 80)	A (> 80)	A (> 80)
COc1ccnc(C(=O)N[C@@H](C)C(=O)O[C@@H](C)[C@H](Oc2ccc(C)cc2)C(C)(C)C)c1OC(C)=O [Cmpd 1059]	–	–	–	–	B (≤ 80)	B (≤ 80)	A (> 80)	A (> 80)
CCC[C@@H](Oc1ccc(C)cc1)[C@H](C)OC(=O)[C@H](C)NC(=O)c1nccc(OC)c1OC(C)=O [Cmpd 1060]	–	–	–	–	B (≤ 80)	B (≤ 80)	A (> 80)	A (> 80)
COc1cccc(O[C@H](C2CC2)[C@H](C)OC(=O)[C@H](C)NC(=O)c2nccc(OC)c2OC(C)=O)c1 [Cmpd 1061]	–	–	–	–	D	B (≤ 80)	B (≤ 80)	A (> 80)
COc1cccc(O[C@@H]([C@H](C)OC(=O)[C@H](C)NC(=O)c2nccc(OC)c2OC(C)=O)C(C)(C)C)c1 [Cmpd 1062]	–	–	–	–	B (≤ 80)	B (≤ 80)	A (> 80)	A (> 80)
CCC[C@@H](Oc1cccc(OC)c1)[C@H](C)OC(=O)[C@H](C)NC(=O)c1nccc(OC)c1OC(C)=O [Cmpd 1063]	–	–	–	–	B (≤ 80)	A (> 80)	A (> 80)	A (> 80)
COc1ccnc(C(=O)N[C@@H](C)C(=O)O[C@@H](C)[C@H](Oc2ccccc2)C2CC2)c1OC(C)=O [Cmpd 1064]	–	–	–	–	B (≤ 80)	A (> 80)	A (> 80)	A (> 80)
COc1ccnc(C(=O)N[C@@H](C)C(=O)O[C@@H](C)[C@H](Oc2ccccc2)C(C)(C)C)c1OC(C)=O [Cmpd 1065]	–	–	–	–	B (≤ 80)	A (> 80)	A (> 80)	A (> 80)
COc1ccnc(C(=O)N[C@@H](C)C(=O)O[C@@H](C)[C@H](OCC2CC2)C2CC2)c1OC(C)=O [Cmpd 1066]	–	–	–	–	B (≤ 80)	B (≤ 80)	B (≤ 80)	A (> 80)
COc1ccnc(C(=O)N[C@@H](C)C(=O)O[C@@H](C)[C@H](Oc2ccc(C)cc2Cl)C(C)(C)C)c1OC(C)=O [Cmpd 1067]	–	–	–	–	D	B (≤ 80)	A (> 80)	B (≤ 80)
CCC[C@@H](Oc1ccc(C)cc1Cl)[C@H](C)OC(=O)[C@H](C)NC(=O)c1nccc(OC)c1OC(C)=O [Cmpd 1068]	–	–	–	–	B (≤ 80)	B (≤ 80)	A (> 80)	B (≤ 80)
COc1cc(O[C@H](C2CC2)[C@H](C)OC(=O)[C@H](C)NC(=O)c2nccc(OC)c2OC(C)=O)ccc1Cl [Cmpd 1069]	–	–	–	–	B (≤ 80)	B (≤ 80)	A (> 80)	A (> 80)
COc1cc(O[C@@H]([C@H](C)OC(=O)[C@H](C)NC(=O)c2nccc(OC)c2OC(C)=O)C(C)(C)C)ccc1Cl [Cmpd 1070]	–	–	–	–	B (≤ 80)	D	A (> 80)	A (> 80)
COc1ccnc(C(=O)N[C@@H](C)C(=O)O[C@@H](C)[C@H](OCC2CC2)C(C)(C)C)c1OC(C)=O [Cmpd 1071]	–	–	–	–	B (≤ 80)	B (≤ 80)	A (> 80)	A (> 80)
C=CC[C@@H](OCC(=C)C)[C@H](C)OC(=O)[C@H](C)NC(=O)c1nccc(OC)c1OC(C)=O [Cmpd 1074]	–	–	–	–	D	D	D	B (≤ 80)
C=CC[C@@H](Oc1ccc(F)cc1F)[C@H](C)OC(=O)[C@H](C)NC(=O)c1nccc(OC)c1OCOC(C)=O [Cmpd 1075]	–	–	–	–	D	B (≤ 80)	A (> 80)	B (≤ 80)
C=CC[C@@H](OCC1CC1)[C@H](C)OC(=O)[C@H](C)NC(=O)c1nccc(OC)c1OCOC(C)=O [Cmpd 1076]	–	–	–	–	D	D	B (≤ 80)	B (≤ 80)
